These results are taken from US9051350B2, “Macrocyclic antiproliferation agents and methods of treatment” (University of Florida Research Foundation, Inc., priority 2008, dated 2015).

*1 amine or outer side, *2 acyl side, *3 side chain or, on linkers, in order; H or OH if unused. Where a SMILES comes first, the peptide text is derived from it. [ ]: non-standard residue; d: D form. ξ: configuration not given here. dβ3hAla(2R-Me) = C[C@@H](N[*:1])[C@@H](C)C(=O)[*:2]; X1 = CN(C(Cc1ccccc1)C1=N[C@H](C(=O)[*:2])CS1)[*:1]; X2 = CC[C@@H](N[*:1])C1=NC(C(=O)[*:2])CS1; d(aThr) = C[C@@H](O)[C@@H](N)C(=O)O; dNMeL = CN[C@H](CC(C)C)C(=O)O; ξPhLac = O=C(O)C(O)Cc1ccccc1; NMeV = CN[C@H](C(=O)O)C(C)C

Common to all, as to assay: Cell viability assay (MTT), antiproliferative activity
Holding throughout (type): cell-based

Assay [1] has as its system colorectal adenocarcinoma (HT29). To be noted: Homo sapiens, HT-29, HT29 cells, 48 hours of incubation. The protocol:
(§1) Cell culture medium was purchased from Invitrogen and fetal bovine serum (FBS) from Hyclone. Cells were propagated and maintained in DMEM medium (high glucose) supplemented with 10% FBS at 37° C. humidified air and 5% CO2.
(§2) HT29 colon adenocarcinoma cells were used for the bioassay-guided fractionation. To determine cell type selectivity, cells from four cancer cell lines (U2OS, HeLa, HT29 and IMR-32) were plated in 96-well format and incubated at 37° C. (5% CO2) for 24 hours. A dilution series of 1 in DMSO (1 μL) was then added, and after further 48 hours of incubation the cell viability was quantified using a standard assay kit based on MTT dye according to the manufacturer's instructions (Promega).

In assay [2] the test system is cervical carcinoma (HeLa). To be noted: Homo sapiens, HeLa cells, 48 hours of incubation. How it is done: as §1, §2
The next assay deals with neuroblastoma (IMR-32). To be noted: Homo sapiens, IMR-32 cells, 48 hours of incubation. How it is done: as §1, §2
The subject of assay [3] is human osteosarcoma (U2OS). The following applies: U2OS cells, 48 hours of incubation. How it is done:
as §1, §2

On to `CC[C@H]1NC(=O)[C@@H]2CSC(=N2)C(Cc2ccccc2)N(C)C(=O)[C@@H]2CCCN2C(=O)[C@H](C(C)C)N(C)C(=O)C(Cc2ccccc2)OC(=O)[C@H](C)[C@@H](C)NC(=O)[C@@H]([C@@H](C)O)NC(=O)[C@@H](CC(C)C)N(C)C(=O)C2CSC1=N2` (stereo partly drawn) [Compound 1, grassypeptolide] (cyclo([NMeV]P[X1][X2][dNMeL][d(aThr)][dβ3hAla(2R-Me)][ξPhLac])), for which the IC50 in assay [1] amounted to 1500 nM; in assay [2], 1000 nM; in the assay on neuroblastoma (IMR-32), 4200 nM; in assay [3] it was 2200 nM.
